Results as given in US11464786B2, “CXCR7 inhibitors for the treatment of cancer” (CHEMOCENTRYX, INC., priority 2018, dated 2022).

Tests used:
Frs2β (+/+) CAFs = assay: Migration (mobilization) of CAFs in co-culture; assay type: cell-based, mouse; details: single inhibitor alone, 100 μg/ml; data not shown
Description: FIG. 4A-I CXCL12 produced from precancerous Frs2β (+/+) mammary cells induce tumor spheres and migration of CAFs. (A) Schematic of co-culture of Frs2β (+/+) tumor cells to form spheres in the lower chamber with Frs2β (+/+) precancerous mammary epithelial cells in the upper chamber. (B) Representative images of tumor sphere formation in the presence of Frs2β (+/+) mammary epithelial cells treated with control IgG (400 nM) or IGF1 neutralizing antibody (Nab) (400 nM). N.T., not treated (without co-culture with mammary epithelial cells). Scale bar: 100 ∝μ. (C) Quantification of tumor sphere-forming efficiency. Results are shown as means±SEM. n=4. ***p<0.001, **p<0.01. (D) Schematic of co-culture of Frs2β (+/+) or Frs2β (−/−) mammary cells in the lower chamber with Frs2β (+/+) or Frs2β (−/−) CAFs in the upper chamber. (E) Expression levels of Cxcl12 was compared between Frs2β (+/+) or Frs2β (−/−) mammary cells on the […] by qPCR. Results were shown as mean±SEM. n=6. * * *p<0.001. (F) Representative images of migrated Frs2β (+/+) CAFs co-cultured with Frs2β (+/+) or Frs2β (−/−) mammary cells in the […] for 24 hours. (G) Quantification of migrated Frs2β (+/+) CAFs. Results were shown as mean±SEM. n=4. **p<0.01. […] (I) Quantification of the migrated CAFs co-cultured with Frs2β (+/+) cancer cells for 24 hr. […]

Frs2β (+/+) mice = assay: DHMEQ treatment in vivo: RelA localization and cytokine transcripts in precancerous mammary tissues; set-up: species or system mouse; details: 10 μg/g intraperitoneally once a day for 3 weeks
Excerpt: (§1) FIG. 5A-K FRS2β-dependent increase in activation of AKT-NFκB increases the production of IGF1 and CXCL12, promoting tumorigenesis. (A) Schematic of DHMEQ treatment of cultured Frs2β (+/+) precancerous mammary epithelial cells in vitro. (B) Expression levels of Igf1, Cxcl12, and IκBα in Frs2β (+/+) precancerous mammary epithelial cells treated with the indicated concentration of DHMEQ were compared by qPCR. Results are shown as means±SEM. n=4. **p<0.01. (C) Immunoblotting analysis of the indicated proteins in the lysate of Frs2β (+/+) or Frs2β (−/−) precancerous mammary tissues. Actin was used as a loading control. (D) Immunoblotting analysis of cytoplasmic and nuclear expression levels of the indicated proteins (control as a nuclear protein) in the lysate of Frs2β (+/+) or Frs2β (−/−) mammary tissues. PARP1 was used as a representative protein in nucleus. Actin was used as a loading control. (E) Immunoblotting analysis of the indicated proteins in the lysate of Frs2β (+/+) or Frs2β (−/−) mammary tissues. Actin was used as a loading control. (F) Schematic of DHMEQ treatment of Frs2β (+/+) mice in vivo. The mice were intraperitoneally injected with 10 μg/g DHMEQ once a day for 3 weeks. (G) Immunohistochemical staining for Frs2β (+/+) mammary tissues with or without 3-week treatment with 10 μg/g DHMEQ, or Frs2β (−/−) mammary tissues, using antibodies against RelA. Scale bar: 50 ∝μ. (H) Expression levels of Igf1 and Cxcl12 in Frs2β (+/+) mammary tissues, with or without 3-week treatment with 10 μg/g DHMEQ. N.T., not treated. Results are shown as means±SEM. n=4. ***p<0.001 and **p<0.01 (I) Treatment of mice with a CXCR7 inhibitor and/or an IGF1 antibody reduces tumor volume. Frs2β (+/+) tumor sphere cells were inoculated into mammary fat pads of 8-week-old virgin female MMTV-neu (+)/Frs2β (+/+) mice. After 7 days, the mice were intraperitoneally injected with 0.1 μg/g IGF1 antibody (R&D Biosystems) once per week and/or 1 μg/g of AMD3100 (Sigma) one a day and 1.5 μg/g of Compound 1 once a day. […] Tumor volumes (J) and weights (K) were measured in mice treated as in (I). […]

[1] = tested on: Frs2β (+/+) precancerous mammary epithelial cells; assay: qPCR of NFkB target gene expression in cultured precancerous mammary epithelial cells; assay type: cell-based, mouse; details: in vitro, dose-dependent
Excerpt: as §1

SMILES: c1cc(CN2CCCNCCNCCCNCC2)ccc1CN1CCCNCCNCCCNCC1 [AMD3100]
- mobilization of CAFs (Frs2β (+/+) CAFs): did not observe significant effects

SMILES: CC(C)c1cc(N2CCCN(Cc3csc(-c4ccccc4)n3)CC2)c2ncccc2c1 [Compound 1]
- mobilization of CAFs (Frs2β (+/+) CAFs): did not observe significant effects

SMILES: O=C(NC1=CC(=O)[C@H]2O[C@H]2[C@H]1O)c1ccccc1O [DHMEQ]
- expression of Cxcl12 transcripts in precancerous mammary tissues (Frs2β (+/+) mice): inhibited
- expression of Igf1 transcripts in precancerous mammary tissues (Frs2β (+/+) mice): inhibited
- number of Frs2β (+/+) precancerous luminal cells harboring RelA in the nucleus (Frs2β (+/+) mice; immunohistochemistry): dramatically decreased
- expression of Cxcl12 [1]: inhibited
- expression of Igf1 [1]: inhibited
- expression of IkBa [1]: inhibited
